Results as given in patent US10696634B2, “Pyridine compounds as fungicides” (BASF SE, priority 2015, dated 2020).

Assays:
[1] = system: Botrytis cinerea; assay: Microtiterplate test against grey mold Botrytis cinerea; format: cell-based; conditions: comparative example, 405 nm 9 days after inoculation
[2] = system: Leptosphaeria nodorum; assay: Microtiterplate test against wheat leaf spots caused by Leptosphaeria nodorum; format: cell-based; conditions: comparative example, 405 nm 9 days after inoculation

## CCOC(C)c1c(F)cccc1Oc1cnc(C)c(C)c1 (stereo not shown) [Example I-16]
[1]
  Growth (%) at 31 ppm: 34%
[2]
  Growth (%) at 31 ppm: 40%

## COC(C)c1c(F)cccc1Oc1cnc(C)c(C)c1 (stereo not shown) [State of the art]
[1]
  Growth (%) at 31 ppm: 58%
[2]
  Growth (%) at 31 ppm: 68%
